Source: PubChem BioAssay (NCI)
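Method: 48-hour compound exposure of cells in 96-well plates, five concentrations, linear interpolation of endpoints. Here, GI50 denotes the concentration required for 50% inhibition of growth. The concentration for full growth arrest is given as TGI.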

How the values were obtained:
Experiment in all cases: DTP human tumour cell line panel, 48 h
HOP-92 NSCLC = test system: HOP-92 NSCLC
HL-60(TB) leukemia = test system: HL-60(TB) leukemia
U251 CNS = test system: U251 CNS
SNB-75 CNS = test system: SNB-75 CNS
K-562 leukemia = test system: K-562 leukemia
A498 renal = test system: A498 renal
A549 NSCLC = test system: A549 NSCLC
NCI-H460 lung = test system: NCI-H460 lung
T-47D breast = test system: T-47D breast
COLO 205 colon = test system: COLO 205 colon
IGROV1 ovarian = test system: IGROV1 ovarian
SF-268 CNS = test system: SF-268 CNS
NCI-H226 lung = test system: NCI-H226 lung
MALME-3M melanoma = test system: MALME-3M melanoma
786-0 renal = test system: 786-0 renal
UACC-257 melanoma = test system: UACC-257 melanoma
SK-MEL-2 melanoma = test system: SK-MEL-2 melanoma
UACC-62 melanoma = test system: UACC-62 melanoma
MCF7 breast = test system: MCF7 breast
ACHN renal = test system: ACHN renal
HS 578T breast = test system: HS 578T breast
PC-3 prostate = test system: PC-3 prostate
MDA-MB-435 = test system: MDA-MB-435
OVCAR-5 ovarian = test system: OVCAR-5 ovarian
DU-145 prostate = test system: DU-145 prostate
MDA-MB-231 breast = test system: MDA-MB-231 breast
SF-295 CNS = test system: SF-295 CNS
HOP-62 NSCLC = test system: HOP-62 NSCLC
BT-549 breast = test system: BT-549 breast
SK-MEL-5 melanoma = test system: SK-MEL-5 melanoma
RXF 393 renal = test system: RXF 393 renal
SNB-19 CNS = test system: SNB-19 CNS
KM12 colon = test system: KM12 colon
CAKI-1 renal = test system: CAKI-1 renal
OVCAR-8 ovarian = test system: OVCAR-8 ovarian
OVCAR-3 ovarian = test system: OVCAR-3 ovarian
HT29 colon = test system: HT29 colon
HCT-116 colon = test system: HCT-116 colon
M14 melanoma = test system: M14 melanoma
RPMI-8226 leukemia = test system: RPMI-8226 leukemia
HCT-15 colon = test system: HCT-15 colon
EKVX NSCLC = test system: EKVX NSCLC
LOX IMVI melanoma = test system: LOX IMVI melanoma
TK-10 renal = test system: TK-10 renal
SW-620 colon = test system: SW-620 colon
SK-MEL-28 melanoma = test system: SK-MEL-28 melanoma
SR leukemia = test system: SR leukemia
SN12C renal = test system: SN12C renal
MOLT-4 leukemia = test system: MOLT-4 leukemia
NCI/ADR-RES ovarian = test system: NCI/ADR-RES ovarian
SK-OV-3 ovarian = test system: SK-OV-3 ovarian
CCRF-CEM leukemia = test system: CCRF-CEM leukemia
HCC-2998 colon = test system: HCC-2998 colon
SF-539 CNS = test system: SF-539 CNS
NCI-H522 lung = test system: NCI-H522 lung
OVCAR-4 ovarian = test system: OVCAR-4 ovarian
UO-31 renal = test system: UO-31 renal

In the case of `N#Cc1c(-c2ccc(Cl)cc2)nc(SCc2ccc(F)cc2)nc1N1CCNCC1`, the GI50 (HOP-92 NSCLC) was 1.61 µM, the TGI (HOP-92 NSCLC) was 8.51 µM and the GI50 (HL-60(TB) leukemia) was 1.83 µM. The TGI (HL-60(TB) leukemia) was 4.2 µM, the GI50 (U251 CNS) was 1.69 µM and the TGI (U251 CNS) was 3.13 µM. For the same compound, the GI50 (SNB-75 CNS) was 1.46 µM, the TGI (SNB-75 CNS) was 2.83 µM and the GI50 (K-562 leukemia) was 2.09 µM. The TGI (K-562 leukemia) was 5.22 µM, the GI50 (A498 renal) was 14.3 µM and the TGI (A498 renal) was 30.1 µM. It also gave a GI50 (A549 NSCLC) of 1.61 µM, a TGI (A549 NSCLC) of 3.06 µM and a GI50 (NCI-H460 lung) of 1.97 µM. For the same compound, the TGI (NCI-H460 lung) was 3.74 µM, the GI50 (T-47D breast) was 1.69 µM and the TGI (T-47D breast) was 3.52 µM. For the same compound, the GI50 (COLO 205 colon) was 1.75 µM, the TGI (COLO 205 colon) was 3.2 µM and the GI50 (IGROV1 ovarian) was 1.8 µM. It also gave a TGI (IGROV1 ovarian) of 3.57 µM, a GI50 (SF-268 CNS) of 2.27 µM and a TGI (SF-268 CNS) of 5.82 µM. It also gave a GI50 (NCI-H226 lung) of 5.97 µM, a TGI (NCI-H226 lung) of 24.9 µM and a GI50 (MALME-3M melanoma) of 1.69 µM. The TGI (MALME-3M melanoma) was 3.35 µM, the GI50 (786-0 renal) was 1.61 µM and the TGI (786-0 renal) was 3.2 µM. It also gave a GI50 (UACC-257 melanoma) of 1.64 µM, a TGI (UACC-257 melanoma) of 3.13 µM and a GI50 (SK-MEL-2 melanoma) of 14.7 µM. It also gave a TGI (SK-MEL-2 melanoma) of 29.3 µM, a GI50 (UACC-62 melanoma) of 1.76 µM and a TGI (UACC-62 melanoma) of 3.33 µM. For the same compound, the GI50 (MCF7 breast) was 1.65 µM, the TGI (MCF7 breast) was 3.29 µM and the GI50 (ACHN renal) was 1.8 µM. For the same compound, the TGI (ACHN renal) was 3.19 µM, the GI50 (HS 578T breast) was 1.95 µM and the TGI (HS 578T breast) was 4.45 µM. It also gave a GI50 (PC-3 prostate) of 1.79 µM, a TGI (PC-3 prostate) of 3.75 µM and a GI50 (MDA-MB-435) of 1.68 µM. It also gave a TGI (MDA-MB-435) of 3.05 µM, a GI50 (OVCAR-5 ovarian) of 2.2 µM and a TGI (OVCAR-5 ovarian) of 6.25 µM. It also gave a GI50 (DU-145 prostate) of 2.59 µM, a TGI (DU-145 prostate) of 6.54 µM and a GI50 (MDA-MB-231 breast) of 1.83 µM. It also gave a TGI (MDA-MB-231 breast) of 3.47 µM, a GI50 (SF-295 CNS) of 1.88 µM and a TGI (SF-295 CNS) of 3.47 µM. The GI50 (HOP-62 NSCLC) was 1.64 µM, the TGI (HOP-62 NSCLC) was 3.26 µM and the GI50 (BT-549 breast) was 7.59 µM. The TGI (BT-549 breast) was 22.1 µM, the GI50 (SK-MEL-5 melanoma) was 14.3 µM and the TGI (SK-MEL-5 melanoma) was 29.5 µM. It also gave a GI50 (RXF 393 renal) of 1.53 µM, a TGI (RXF 393 renal) of 2.87 µM and a GI50 (SNB-19 CNS) of 2.21 µM. It also gave a TGI (SNB-19 CNS) of 6.02 µM, a GI50 (KM12 colon) of 1.91 µM and a TGI (KM12 colon) of 3.82 µM. For the same compound, the GI50 (CAKI-1 renal) was 1.4 µM, the TGI (CAKI-1 renal) was 2.71 µM and the GI50 (OVCAR-8 ovarian) was 1.84 µM. For the same compound, the TGI (OVCAR-8 ovarian) was 3.45 µM, the GI50 (OVCAR-3 ovarian) was 1.89 µM and the TGI (OVCAR-3 ovarian) was 3.71 µM. It also gave a GI50 (HT29 colon) of 1.74 µM, a TGI (HT29 colon) of 3.14 µM and a GI50 (HCT-116 colon) of 1.72 µM. It also gave a TGI (HCT-116 colon) of 3.09 µM, a GI50 (M14 melanoma) of 1.67 µM and a TGI (M14 melanoma) of 3.09 µM. The GI50 (RPMI-8226 leukemia) was 2.19 µM, the TGI (RPMI-8226 leukemia) was 5.23 µM and the GI50 (HCT-15 colon) was 1.81 µM. The TGI (HCT-15 colon) was 3.45 µM, the GI50 (EKVX NSCLC) was 4.98 µM and the TGI (EKVX NSCLC) was 19.7 µM. The GI50 (LOX IMVI melanoma) was 1.7 µM, the TGI (LOX IMVI melanoma) was 3.07 µM and the GI50 (TK-10 renal) was 10.6 µM. The TGI (TK-10 renal) was 23.9 µM, the GI50 (SW-620 colon) was 1.98 µM and the TGI (SW-620 colon) was 4.04 µM. For the same compound, the GI50 (SK-MEL-28 melanoma) was 1.74 µM, the TGI (SK-MEL-28 melanoma) was 3.15 µM and the GI50 (SR leukemia) was 1.99 µM. It also gave a TGI (SR leukemia) of 4.79 µM, a GI50 (SN12C renal) of 1.73 µM and a TGI (SN12C renal) of 3.33 µM. For the same compound, the GI50 (MOLT-4 leukemia) was 2.43 µM, the TGI (MOLT-4 leukemia) was 6.54 µM and the GI50 (NCI/ADR-RES ovarian) was 1.73 µM. For the same compound, the TGI (NCI/ADR-RES ovarian) was 3.28 µM, the GI50 (SK-OV-3 ovarian) was 10.4 µM and the TGI (SK-OV-3 ovarian) was 24.8 µM. It also gave a GI50 (CCRF-CEM leukemia) of 2.82 µM, a TGI (CCRF-CEM leukemia) of 8.28 µM and a GI50 (HCC-2998 colon) of 1.8 µM. For the same compound, the TGI (HCC-2998 colon) was 3.22 µM, the GI50 (SF-539 CNS) was 1.71 µM and the TGI (SF-539 CNS) was 3.16 µM. It also gave a GI50 (NCI-H522 lung) of 1.61 µM, a TGI (NCI-H522 lung) of 3.08 µM and a GI50 (OVCAR-4 ovarian) of 1.78 µM. It also gave a TGI (OVCAR-4 ovarian) of 4.06 µM, a GI50 (UO-31 renal) of 1.4 µM and a TGI (UO-31 renal) of 2.83 µM.
